# From patent publication US9663496B2, “AMPK-activating heterocyclic compounds and methods for using the same” (Rigel Pharmaceuticals, Inc., priority 2010, dated 2017)
# Target: AMPK
# Test: AMPK activation, enzyme-linked immunosorbent assay
# Type: biochemical
# Conditions: EC50 for AMPK activation, ELISA
# How it was run: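 Compounds were tested for their capacity to activate the kinase using standard, commercially available kit reagents and procedures.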
row,EC50,Compound
1,< 500 nM,"CC(=O)c1ccc(Oc2ccc(NC(=O)c3ccc(C(=O)N4CCC(C(=O)c5ccc(F)cc5F)CC4)nc3)cn2)cc1 [Compound 464, N-(6-(4-acetylphenoxy)pyridin-3-yl)-6-(4-(2,4-difluorobenzoyl)piperidine-1-carbonyl)nicotinamide]"
2,5000 to 10000 nM,"N#Cc1ccc(CN2CCC(NC(=O)c3ccc(Nc4ccc(-c5ccccc5)cc4)cn3)CC2)cc1 [Compound 109, 5-(biphenyl-4-ylamino)-N-(1-(4-cyanobenzyl)piperidin-4-yl)picolinamide]"
3,500 to 1000 nM,"O=C(c1ccc(C(=O)N2CCN(Cc3ccc(F)cc3)CC2)nc1)N1CCN(Cc2ccc(F)cc2)CC1 [Compound 3, pyridine-2,5-diylbis((4-(4-fluorobenzyl)piperazin-1-yl)methanone)]"
4,< 500 nM,"N#Cc1ccc(CN2CCC(NC(=O)c3ccc(C(=O)N4CCC(Oc5ccc(C(F)(F)F)cc5)CC4)cn3)CC2)cc1 [Compound 157, N-(1-(4-cyanobenzyl)piperidin-4-yl)-5-(4-(4-(trifluoromethyl)phenoxy)piperidine-1-carbonyl)picolinamide]"
5,500 to 1000 nM,"COc1ccc(S(=O)(=O)N2CCN(C(=O)c3ccc(C(=O)NC4CCN(Cc5ccc(C#N)cc5)CC4)nc3)CC2)cc1 [Compound 79, N-(1-(4-cyanobenzyl)piperidin-4-yl)-5-(4-(4-methoxyphenylsulfonyl)piperazine-1-carbonyl)picolinamide]"
6,1000 to 5000 nM,"COc1ccc(CN2CCC(NC(=O)c3ccc(C(=O)N4CCC(C(=O)c5ccc(S(C)(=O)=O)cc5)CC4)nc3)CC2)cc1 [Compound 223, N-(1-(4-methoxybenzyl)piperidin-4-yl)-6-(4-(4-(methylsulfonyl)benzoyl)piperidine-1-carbonyl)nicotinamide]"
7,< 500 nM,"N#Cc1ccc(CN2CCC(NC(=O)c3ccc(C(=O)N4CCC(Oc5ccc(S(=O)(=O)C(F)(F)F)cc5)CC4)nc3)C(F)C2)cc1 (stereo in doubt) [Compound 451, N-((3S,4R)-1-(4-cyanobenzyl)-3-fluoropiperidin-4-yl)-6-(4-(4-(trifluoromethylsulfonyl)phenoxy)piperidine-1-carbonyl)nicotinamide]"
8,< 500 nM,"N#Cc1ccc(Cn2ccc(NC(=O)c3ccc(C(=O)N4CCN(Cc5ccc(F)cc5)CC4)cn3)n2)cc1 [Compound 9, N-(1-(4-cyanobenzyl)-1H-pyrazol-3-yl)-5-(4-(4-fluorobenzyl)piperazine-1-carbonyl)picolinamide]"
9,1000 to 5000 nM,"N#Cc1ccc(CN2CCC3(CCN(C(=O)c4ccc(C(=O)N5CCN(Cc6ccc(F)cc6)CC5)cn4)CC3)C2)cc1 [Compound 15, 4-((8-(5-(4-(4-fluorobenzyl)piperazine-1-carbonyl)picolinoyl)-2,8-diazaspiro[4.5]decan-2-yl)methyl)benzonitrile]"
10,< 500 nM,"N#Cc1ccc(CN2CCC(NC(=O)c3ccc(C(=O)N4CC[C@H](Oc5ccc(F)cc5)C4)cn3)CC2)cc1 [Compound 270, (S)—N-(1-(4-cyanobenzyl)piperidin-4-yl)-5-(3-(4-fluorophenoxy)pyrrolidine-1-carbonyl)picolinamide]"
11,< 500 nM,"CS(=O)(=O)c1ccc(OC2CCN(C(=O)c3cnc(C(=O)Nc4ccc(Oc5ccc(F)cc5)nc4)cn3)CC2)cc1 [Compound 207, N-(6-(4-fluorophenoxy)pyridin-3-yl)-5-(4-(4-(methylsulfonyl)phenoxy)piperidine-1-carbonyl)pyrazine-2-carboxamide]"
12,< 500 nM,"N#Cc1ccc(CN2CCC(NC(=O)c3ccc(C(=O)N4CCC(Oc5ccc(C#N)cc5)CC4)cn3)CC2)cc1 [Compound 135, N-(1-(4-cyanobenzyl)piperidin-4-yl)-5-(4-(4-cyanophenoxy)piperidine-1-carbonyl)picolinamide]"
13,< 500 nM,"COc1ccc(OC2CCN(C(=O)c3ccc(C(=O)N[C@H]4CC[C@@H](Oc5ccc(OC)cc5)CC4)nc3)CC2)cc1 [Compound 186, N-((cis)-4-(4-methoxyphenoxy)cyclohexyl)-5-(4-(4-methoxyphenoxy)piperidine-1-carbonyl)picolinamide]"
14,> 10000 nM,"CS(=O)(=O)Nc1ccc(OC2CCN(C(=O)c3ccc(C(=O)NC4CCN(Cc5ccc(C#N)cc5)CC4)cn3)CC2)cc1 [Compound 367, N-(1-(4-cyanobenzyl)piperidin-4-yl)-6-(4-(4-(methylsulfonamido)phenoxy)piperidine-1-carbonyl)nicotinamide]"
15,< 500 nM,"O=C(N[C@@H]1CCN(Cc2ccc(Cl)cc2)C[C@@H]1F)c1ccc(C(=O)N2CCN(Cc3ccc(F)cc3)CC2)cn1 (relative stereo) [Compound 127, N-(cis-1-(4-chlorobenzyl)-3-fluoropiperidin-4-yl)-5-(4-(4-fluorobenzyl)piperazine-1-carbonyl)picolinamide]"
16,< 500 nM,"N#Cc1ccc(CN2CCC(NC(=O)c3ccc(C(=O)N4CCC(Oc5ccncc5)CC4)cn3)CC2)cc1 [Compound 269, N-(1-(4-cyanobenzyl)piperidin-4-yl)-5-(4-(pyridin-4-yloxy)piperidine-1-carbonyl)picolinamide]"
17,< 500 nM,"N#Cc1ccc(CN2CCC(NC(=O)c3ccc(C(=O)N4CCC(Oc5ccc(C(=O)C6CC6)cc5)CC4)nc3)CC2)cc1 [Compound 456, N-(1-(4-cyanobenzyl)piperidin-4-yl)-6-(4-(4-(cyclopropanecarbonyl)phenoxy)piperidine-1-carbonyl)nicotinamide]"
18,500 to 1000 nM,"O=C(NC1CCN(Cc2ccc(F)cc2)CC1)c1ccc(C(=O)N2CCC(Oc3cccc(NC(=O)C4CC4)c3)CC2)nc1 [Compound 432, 6-(4-(3-(cyclopropanecarboxamido)phenoxy)piperidine-1-carbonyl)-N-(1-(4-fluorobenzyl)piperidin-4-yl)nicotinamide]"
19,< 500 nM,"COc1ccc(CN2CCC(NC(=O)c3ccc(C(=O)N4CCC(Oc5ccc(NC(C)=O)cc5)CC4)nc3)CC2)cc1 [Compound 407, 6-(4-(4-acetamidophenoxy)piperidine-1-carbonyl)-N-(1-(4-methoxybenzyl)piperidin-4-yl)nicotinamide]"
20,500 to 1000 nM,"O=C(Nc1ccc(Oc2ccc(F)cc2)nc1)c1ccc(C(=O)N2CCC(C(=O)c3ccc(F)c(F)c3)CC2)cn1 [Compound 330, 5-(4-(3,4-difluorobenzoyl)piperidine-1-carbonyl)-N-(6-(4-fluorophenoxy)pyridin-3-yl)picolinamide]"
21,1000 to 5000 nM,"CC(=O)Nc1cccc(OC2CCN(C(=O)c3ccc(C(=O)NC4CCN(Cc5ccc(F)cc5)CC4)cn3)CC2)c1 [Compound 413, 6-(4-(3-acetamidophenoxy)piperidine-1-carbonyl)-N-(1-(4-fluorobenzyl)piperidin-4-yl)nicotinamide]"
22,> 10000 nM,"O=C(c1ccc(C(=O)N2CCN(CCc3ccccc3)CC2)nc1)N1CCN(CCc2ccccc2)CC1 [Compound 92, pyridine-2,5-diylbis((4-phenethylpiperazin-1-yl)methanone)]"
23,< 500 nM,"CN(C)C(=O)c1ccc(OC2CCN(C(=O)c3ccc(C(=O)NC4CCN(Cc5ccc(C#N)cc5)CC4)nc3)CC2)cc1 [Compound 357, N-(1-(4-cyanobenzyl)piperidin-4-yl)-5-(4-(4-(dimethylcarbamoyl)phenoxy)piperidine-1-carbonyl)picolinamide]"
24,< 500 nM,"N#Cc1ccc(CN2CC[C@@H](NC(=O)c3ccc(C(=O)N4CCN(Cc5ccc(F)cc5)CC4)cn3)C2)cc1 [Compound 118, (R)-N-(1-(4-cyanobenzyl)pyrrolidin-3-yl)-5-(4-(4-fluorobenzyl)piperazine-1-carbonyl)picolinamide]"
